# According to patent publication US20260355196A1, “INHIBITORS AND DEGRADERS OF PIP4K PROTEIN” (Larkspur Biosciences, Inc., priority 2023, published 2026):
# Target: T1, PIP4K2C (Homo sapiens, UniProt Q8TBX8)
# T1 sequence (Q8TBX8 1-421): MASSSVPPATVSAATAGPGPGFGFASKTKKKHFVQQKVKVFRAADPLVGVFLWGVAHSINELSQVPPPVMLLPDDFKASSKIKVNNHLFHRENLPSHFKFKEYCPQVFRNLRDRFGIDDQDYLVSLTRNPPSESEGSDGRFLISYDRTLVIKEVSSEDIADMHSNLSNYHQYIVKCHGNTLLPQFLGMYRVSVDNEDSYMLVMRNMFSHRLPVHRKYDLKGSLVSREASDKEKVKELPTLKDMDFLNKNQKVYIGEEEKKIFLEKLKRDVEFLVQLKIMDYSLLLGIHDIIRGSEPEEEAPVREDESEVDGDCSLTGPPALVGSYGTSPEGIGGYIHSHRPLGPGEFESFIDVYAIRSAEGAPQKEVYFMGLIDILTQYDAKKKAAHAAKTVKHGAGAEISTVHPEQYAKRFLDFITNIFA
# Assay: Enzyme Binding Assay (KINOMEscan): active site-directed competition binding to an immobilized ligand
# Parameters: purchased Eurofins DiscoverX, San Diego, CA 87-0007-1094
# Conditions: 11-point dose response, duplicate, top concentration 5 micromolar; read-out: Pip4k2c Kd: IC50
# In short: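 IC50 values come from Hill-equation fits (Levenberg-Marquardt) to 11-point duplicate titrations starting at 5 micromolar. Read-out is competition of compound with an immobilized ligand for the kinase active site.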
row,SMILES,IC50 [nM]
1,"NC(=O)[C@@H]1CCC[C@H](Nc2ncc(F)c(-c3ccnc(C4(O)CCC4)c3)n2)C1 [Compound 244, (1R,3S)-3-((5-fluoro-4-(2-(1-hydroxycyclobutyl)pyridin-4-yl)pyrimidin-2-yl)amino)cyclohexane-1-carboxamide]",< 500
2,"NC(=O)[C@H]1CC[C@H](Nc2ncc(F)c(-c3cccc(N4CCOC4=O)c3)n2)CC1 [Compound 245, trans-4-((5-fluoro-4-(3-(2-oxooxazolidin-3-yl)phenyl)pyrimidin-2-yl)amino)cyclohexane-1-carboxamide]",< 500
3,"NC(=O)[C@H]1CC[C@H](Nc2ncc(F)c(-c3cccc(-n4cc(C(F)(F)F)ccc4=O)c3)n2)CC1 [Compound 246, trans-4-((5-fluoro-4-(3-(2-oxo-5-(trifluoromethyl)pyridin-1 (2H)-yl)phenyl)pyrimidin-2-yl)amino)cyclohexane-1-carboxamide]",< 500
4,"Cc1ccc(=O)n(-c2cccc(-c3nc(N[C@H]4CC[C@H](C(N)=O)CC4)ncc3F)c2)c1 [Compound 247, trans-4-((5-fluoro-4-(3-(5-methyl-2-oxopyridin-1 (2H)-yl)phenyl)pyrimidin-2-yl)amino)cyclohexane-1-carboxamide]",< 500
5,"CC(=O)N[C@H]1CC[C@H](Nc2ncc(F)c(-c3cccc(N4CCCC4=O)c3)n2)CC1 [Compound 248, trans-N-(4-((5-fluoro-4-(3-(2-oxopyrrolidin-1-yl)phenyl)pyrimidin-2-yl)amino)cyclohexyl)acetamide]",< 500
6,"NC(=O)[C@H]1CC[C@H](Nc2ncc(F)c(-c3cccc(N4CCCC4=O)c3)n2)CC1 [Compound 249, trans-4-((5-fluoro-4-(3-(2-oxopyrrolidin-1-yl)phenyl)pyrimidin-2-yl)amino)cyclohexane-1-carboxamide]",< 500
7,"CC(=O)N[C@H]1CC[C@H](Nc2ncc(F)c(-c3cccc(N4CCC(O)CC4)c3)n2)CC1 [Compound 250, trans-N-(4-((5-fluoro-4-(3-(4-hydroxypiperidin-1-yl)phenyl)pyrimidin-2-yl)amino)cyclohexyl)acetamide]",< 500
8,"NC(=O)[C@H]1CC[C@H](Nc2ncc(F)c(-c3cccc(N4CCC(O)CC4)c3)n2)CC1 [Compound 251, trans-4-((5-fluoro-4-(3-(4-hydroxypiperidin-1-yl)phenyl)pyrimidin-2-yl)amino)cyclohexane-1-carboxamide]",< 500
9,"CC(=O)N[C@H]1CC[C@H](Nc2ncc(F)c(-c3cccc(C(=O)N4CC[C@H](O)C4)c3)n2)CC1 [Compound 252, trans-N-[4-[[5-fluoro-4-[3-[(3S)-3-hydroxypyrrolidine-1-carbonyl]phenyl]pyrimidin-2-yl]amino]cyclohexyl]acetamide]",< 500
10,"CC(=O)N[C@H]1CC[C@H](Nc2ncc(F)c(-c3ccnc(N4CCOC4=O)c3)n2)CC1 [Compound 253, trans-N-((1r,4r)-4-((5-fluoro-4-(2-(2-oxooxazolidin-3-yl)pyridin-4-yl)pyrimidin-2-yl)amino)cyclohexyl)acetamide]",< 500
11,"NC(=O)[C@H]1CC[C@H](Nc2ncc(F)c(-c3cccc(-c4ccc[nH]c4=O)c3)n2)CC1 [Compound 254, trans-(1r,4r)-4-((5-fluoro-4-(3-(2-oxo-1,2-dihydropyridin-3-yl)phenyl)pyrimidin-2-yl)amino)cyclohexane-1-carboxamide]",< 500
12,"CC(=O)N[C@H]1CC[C@H](Nc2ncc(F)c(-c3cccc(-c4ccc[nH]c4=O)c3)n2)CC1 [Compound 255, N-(trans-4-((5-fluoro-4-(3-(2-oxo-1,2-dihydropyridin-3-yl)phenyl)pyrimidin-2-yl)amino)cyclohexyl)acetamide]",< 500
13,"CC(=O)N[C@H]1CC[C@H](Nc2ncc(F)c(-c3cccc(N4CCCCC4=O)c3)n2)CC1 [Compound 256, trans-N-(4-((5-fluoro-4-(3-(2-oxopiperidin-1-yl)phenyl)pyrimidin-2-yl)amino)cyclohexyl)acetamide]",< 500
14,"CC(=O)N[C@H]1CC[C@H](Nc2ncc(F)c(-c3ccnc(N4CCCCC4=O)c3)n2)CC1 [Compound 257, trans-N-(-4-((5-fluoro-4-(2-(2-oxopiperidin-1-yl)pyridin-4-yl)pyrimidin-2-yl)amino)cyclohexyl)acetamide]",< 500
15,"NC(=O)[C@H]1CC[C@H](Nc2ncc(F)c(-c3ccnc(N4CCCCC4=O)c3)n2)CC1 [Compound 258, trans-4-((5-fluoro-4-(2-(2-oxopiperidin-1-yl)pyridin-4-yl)pyrimidin-2-yl)amino)cyclohexane-1-carboxamide]",< 500
16,"NC(=O)[C@H]1CC[C@H](Nc2ncc(F)c(-c3cccc(C(=O)N4CC[C@H](O)C4)c3)n2)CC1 [Compound 259, trans-(S)-4-((5-fluoro-4-(3-(3-hydroxypyrrolidine-1-carbonyl)phenyl)pyrimidin-2-yl)amino)cyclohexane-1-carboxamide]",< 500

row,SMILES,IC50 [nM]
1,"CC(=O)N[C@H]1CC[C@H](Nc2ncc(F)c(-n3cc(-n4ccccc4=O)cn3)n2)CC1 [Compound 260, trans-N-((1r,4r)-4-((5-fluoro-4-(4-(2-oxopyridin-1 (2H)-yl)-1H-pyrazol-1-yl)pyrimidin-2-yl)amino)cyclohexyl)acetamide]",1000 to 5000
2,"CC(=O)N[C@H]1CC[C@H](Nc2ncc(F)c(-c3ccnc(N4CCCC4=O)c3)n2)CC1 [Compound 261, trans-N-(4-((5-fluoro-4-(2-(2-oxopyrrolidin-1-yl)pyridin-4-yl)pyrimidin-2-yl)amino)cyclohexyl)acetamide]",< 500
3,"NC(=O)[C@H]1CC[C@H](Nc2ncc(F)c(-c3ccnc(N4CCCC4=O)c3)n2)CC1 [Compound 262, trans-(1r,4r)-4-((5-fluoro-4-(2-(2-oxopyrrolidin-1-yl)pyridin-4-yl)pyrimidin-2-yl)amino)cyclohexane-1-carboxamide]",< 500
4,"NC(=O)[C@H]1CC[C@H](Nc2ncc(F)c(-c3ccnc(N4CCOC4=O)c3)n2)CC1 [Compound 263, trans-(1r,4r)-4-((5-fluoro-4-(2-(2-oxooxazolidin-3-yl)pyridin-4-yl)pyrimidin-2-yl)amino)cyclohexane-1-carboxamide]",< 500
5,"NC(=O)[C@H]1CC[C@H](Nc2ncc(F)c(-c3cccc(N4CCCCC4=O)c3)n2)CC1 [Compound 264, trans-4-((5-fluoro-4-(3-(2-oxopiperidin-1-yl)phenyl)pyrimidin-2-yl)amino)cyclohexane-1-carboxamide]",< 500
6,"CC(=O)N[C@H]1CC[C@H](Nc2ncc(F)c(-c3ccnc(-n4ccccc4=O)c3)n2)CC1 [Compound 265, trans-N-(4-((5-fluoro-4-(2-oxo-2H-[1,2′-bipyridin]-4′-yl)pyrimidin-2-yl)amino)cyclohexyl)acetamide]",< 500
7,"CC(=O)N[C@H]1CC[C@H](Nc2ncc(F)c(-c3ccnc(N4CCCOC4=O)c3)n2)CC1 [Compound 266, trans-N-(4-((5-fluoro-4-(2-(2-oxo-1,3-oxazinan-3-yl)pyridin-4-yl)pyrimidin-2-yl)amino)cyclohexyl)acetamide]",< 500
8,"CC(=O)N[C@H]1CC[C@H](Nc2ncc(F)c(-c3cccc(N4CCOCC4=O)c3)n2)CC1 [Compound 267, trans-N-(4-((5-fluoro-4-(3-(3-oxomorpholino)phenyl)pyrimidin-2-yl)amino)cyclohexyl)acetamide]",< 500
9,"NC(=O)[C@H]1CC[C@H](Nc2ncc(F)c(-c3cccc(N4CCOCC4=O)c3)n2)CC1 [Compound 268, trans-4-((5-fluoro-4-(3-(3-oxomorpholino)phenyl)pyrimidin-2-yl)amino)cyclohexane-1-carboxamide]",< 500
10,"CC(=O)N[C@H]1CC[C@H](Nc2ncc(F)c(-c3cccc(N4CCOCC4=O)n3)n2)CC1 [Compound 270, trans-N-(4-((5-fluoro-4-(6-(3-oxomorpholino)pyridin-2-yl)pyrimidin-2-yl)amino)cyclohexyl)acetamide]",< 500
11,"NC(=O)[C@H]1CC[C@H](Nc2ncc(F)c(-c3cccc(N4CCOCC4=O)n3)n2)CC1 [Compound 271, trans-4-((5-fluoro-4-(6-(3-oxomorpholino)pyridin-2-yl)pyrimidin-2-yl)amino)cyclohexane-1-carboxamide]",< 500
12,"CC(=O)N[C@H]1CC[C@H](Nc2ncc(F)c(-c3ccnc(N4CCOCC4=O)c3)n2)CC1 [Compound 272, trans-N-(4-((5-fluoro-4-(2-(3-oxomorpholino)pyridin-4-yl)pyrimidin-2-yl)amino)cyclohexyl)acetamide]",< 500
13,"NC(=O)[C@H]1CC[C@H](Nc2ncc(F)c(-c3ccnc(N4CCOCC4=O)c3)n2)CC1 [Compound 273, trans-4-((5-fluoro-4-(2-(3-oxomorpholino)pyridin-4-yl)pyrimidin-2-yl)amino)cyclohexane-1-carboxamide]",< 500
14,"NC(=O)[C@H]1CC[C@H](Nc2ncc(F)c(-c3cccc(N4CCCCC4=O)n3)n2)CC1 [Compound 274, trans-4-((5-fluoro-4-(6-(2-oxopiperidin-1-yl)pyridin-2-yl)pyrimidin-2-yl)amino)cyclohexane-1-carboxamide]",< 500
15,"CC(=O)N1CCC(Nc2ncc(F)c(-c3cccc(N4CCOCC4)c3)n2)CC1 [Compound 606, 1-[4-[[5-fluoro-4-(3-morpholinophenyl)pyrimidin-2-yl]amino]-1-piperidyl]ethanone]",< 500
